Test system: 648629-189-R-J1-PDC complex spheroids viability
Assay: Anticancer human tumor 648629-189-R-J1-PDC patient-derived bladder carcinoma cell line growth inhibition [CLK]
Details: for IC50: curve of first compound; for viability, T/C: stronger effect = lower value; active = viability on the fitted dose curve at most 10% of control; inactive = the rest
How it was run: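 Multi-cell-type spheroids combined patient-derived tumor cells with HUVEC endothelial cells and human mesenchymal stem cells. Paired agents were dosed in half-log steps down from about clinical Cmax, or from 10 microM where Cmax was unknown.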

[1] = second compound 0.0316 µM, first compound 0.0316 µM
[2] = second compound 0.0316 µM, first compound 0.1 µM
[3] = second compound 0.0316 µM, first compound 0.316 µM
[4] = second compound 0.0316 µM, first compound 1 µM
[5] = second compound 0.0316 µM, first compound 3.16 µM
[6] = second compound 0.0316 µM, first compound 10 µM
[7] = second compound 0.1 µM, first compound 0.0316 µM
[8] = second compound 0.1 µM, first compound 0.1 µM
[9] = second compound 0.1 µM, first compound 0.316 µM
[10] = second compound 0.1 µM, first compound 1 µM
[11] = second compound 0.1 µM, first compound 3.16 µM
[12] = second compound 0.1 µM, first compound 10 µM
[13] = second compound 0.316 µM, first compound 0.0316 µM
[14] = second compound 0.316 µM, first compound 0.1 µM
[15] = second compound 0.316 µM, first compound 0.316 µM
[16] = second compound 0.316 µM, first compound 1 µM
[17] = second compound 0.316 µM, first compound 3.16 µM
[18] = second compound 0.316 µM, first compound 10 µM
[19] = second compound 1 µM, first compound 0.0316 µM
[20] = second compound 1 µM, first compound 0.1 µM
[21] = second compound 1 µM, first compound 0.316 µM
[22] = second compound 1 µM, first compound 1 µM
[23] = second compound 1 µM, first compound 3.16 µM
[24] = second compound 1 µM, first compound 10 µM
[25] = second compound 3.16 µM, first compound 0.0316 µM
[26] = second compound 3.16 µM, first compound 0.1 µM
[27] = second compound 3.16 µM, first compound 0.316 µM
[28] = second compound 3.16 µM, first compound 1 µM
[29] = second compound 3.16 µM, first compound 3.16 µM
[30] = second compound 3.16 µM, first compound 10 µM
[31] = second compound 10 µM, first compound 0.0316 µM
[32] = second compound 10 µM, first compound 0.1 µM
[33] = second compound 10 µM, first compound 0.316 µM
[34] = second compound 10 µM, first compound 1 µM
[35] = second compound 10 µM, first compound 3.16 µM
[36] = second compound 10 µM, first compound 10 µM
[37] = second compound 0.0316 µM, first compound 0.00316 µM
[38] = second compound 0.0316 µM, first compound 0.01 µM
[39] = second compound 0.1 µM, first compound 0.00316 µM
[40] = second compound 0.1 µM, first compound 0.01 µM
[41] = second compound 0.316 µM, first compound 0.00316 µM
[42] = second compound 0.316 µM, first compound 0.01 µM
[43] = second compound 1 µM, first compound 0.00316 µM
[44] = second compound 1 µM, first compound 0.01 µM
[45] = second compound 3.16 µM, first compound 0.00316 µM
[46] = second compound 3.16 µM, first compound 0.01 µM
[47] = second compound 10 µM, first compound 0.00316 µM
[48] = second compound 10 µM, first compound 0.01 µM
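Throughout, for viability, T/C: drug exposure lasted seven days before viability readout; 100% = DMSO vehicle control wells.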

CC(=O)O[C@H]1C(=O)[C@@]2(C)[C@H]([C@H](OC(=O)c3ccccc3)[C@]3(O)C[C@H](OC(=O)[C@H](O)[C@@H](NC(=O)c4ccccc4)c4ccccc4)C(C)=C1C3(C)C)[C@]1(OC(C)=O)CO[C@@H]1C[C@@H]2O + CN1CCN(c2cc(C(=O)Nc3cc4cc(-c5cnn(C)c5)ccc4cn3)ccn2)CC1
< 31.6 nM: IC50 (second compound 0.0316 µM) | IC50 (second compound 0.1 µM) | IC50 (second compound 0.316 µM) | IC50 (second compound 1 µM) | IC50 (second compound 3.16 µM) | IC50 (second compound 10 µM)
active: viability, T/C [2] 8.37% | viability, T/C [3] 9.02% | viability, T/C [4] 10.6% | viability, T/C [5] 7.39% | viability, T/C [6] 9.59% | viability, T/C [7] 7.2% | viability, T/C [8] 8.42% | viability, T/C [9] 6.79% | viability, T/C [10] 7.78% | viability, T/C [11] 8.57% | viability, T/C [12] 9.47% | viability, T/C [13] 9.01% | viability, T/C [14] 9.65% | viability, T/C [15] 10.1% | viability, T/C [16] 9.51% | viability, T/C [17] 8.91% | viability, T/C [18] 11.2% | viability, T/C [19] 0.14% | viability, T/C [20] 0.13% | viability, T/C [21] 0.87% | viability, T/C [22] 0.11% | viability, T/C [23] 0.47% | viability, T/C [24] 0.64% | viability, T/C [25] 0.07% | viability, T/C [26] 1.18% | viability, T/C [27] 0.13% | viability, T/C [28] 0.09% | viability, T/C [29] 0.11% | viability, T/C [30] 0.1% | viability, T/C [31] 0.1% | viability, T/C [32] 0.13% | viability, T/C [33] 0.2% | viability, T/C [34] 0.17% | viability, T/C [35] 1.53% | viability, T/C [36] 0.16%
inactive: viability, T/C [1] 10.9%

CCc1c2c(nc3ccc(O)cc13)-c1cc3c(c(=O)n1C2)COC(=O)[C@]3(O)CC + CN1CCN(c2cc(C(=O)Nc3cc4cc(-c5cnn(C)c5)ccc4cn3)ccn2)CC1
< 3.16 nM: IC50 (second compound 0.0316 µM) | IC50 (second compound 0.1 µM) | IC50 (second compound 0.316 µM) | IC50 (second compound 1 µM) | IC50 (second compound 3.16 µM) | IC50 (second compound 10 µM)
inactive: viability, T/C [37] 36.5% | viability, T/C [38] 14.7% | viability, T/C [39] 29% | viability, T/C [40] 15.4% | viability, T/C [41] 22.5% | viability, T/C [42] 16.7% | viability, T/C [13] 10.8%
active: viability, T/C [1] 7.53% | viability, T/C [2] 5.28% | viability, T/C [3] 3.93% | viability, T/C [4] 3.89% | viability, T/C [7] 6.89% | viability, T/C [8] 4.76% | viability, T/C [9] 4.13% | viability, T/C [10] 4.88% | viability, T/C [14] 6.46% | viability, T/C [15] 6.71% | viability, T/C [16] 3.75% | viability, T/C [43] 0.15% | viability, T/C [44] 0.14% | viability, T/C [19] 0.15% | viability, T/C [20] 0.06% | viability, T/C [21] 0.21% | viability, T/C [22] 1.34% | viability, T/C [45] 0.05% | viability, T/C [46] 1.41% | viability, T/C [25] 0.1% | viability, T/C [26] 0.07% | viability, T/C [27] 0.3% | viability, T/C [28] 0.54% | viability, T/C [47] 0.05% | viability, T/C [48] 0.52% | viability, T/C [31] 0.17% | viability, T/C [32] 0.15% | viability, T/C [33] 0.22% | viability, T/C [34] 0.48%

Cn1ncnc1[C@H]1c2n[nH]c(=O)c3cc(F)cc(c23)N[C@@H]1c1ccc(F)cc1 + CN1CCN(c2cc(C(=O)Nc3cc4cc(-c5cnn(C)c5)ccc4cn3)ccn2)CC1
< 0.316 nM: IC50 (second compound 0.316 µM) | IC50 (second compound 1 µM) | IC50 (second compound 3.16 µM) | IC50 (second compound 10 µM)
> 100 nM: IC50 (second compound 0.0316 µM) | IC50 (second compound 0.1 µM)
inactive: viability, T/C (second compound 0.0316 µM, first compound 0.000316 µM) 129% | viability, T/C (second compound 0.0316 µM, first compound 0.001 µM) 116% | viability, T/C [37] 107% | viability, T/C [38] 90.2% | viability, T/C [1] 87.8% | viability, T/C [2] 69.7% | viability, T/C (second compound 0.1 µM, first compound 0.000316 µM) 111% | viability, T/C (second compound 0.1 µM, first compound 0.001 µM) 97.2% | viability, T/C [39] 94.8% | viability, T/C [40] 93.5% | viability, T/C [7] 87.7% | viability, T/C [8] 81.2% | viability, T/C (second compound 0.316 µM, first compound 0.000316 µM) 46% | viability, T/C (second compound 0.316 µM, first compound 0.001 µM) 39.1% | viability, T/C [41] 43.5% | viability, T/C [42] 40.1% | viability, T/C [13] 35.3% | viability, T/C [14] 35.6%
active: viability, T/C (second compound 1 µM, first compound 0.000316 µM) 0.38% | viability, T/C (second compound 1 µM, first compound 0.001 µM) 0.8% | viability, T/C [43] 0.73% | viability, T/C [44] 0.22% | viability, T/C [19] 0.2% | viability, T/C [20] 1.42% | viability, T/C (second compound 3.16 µM, first compound 0.000316 µM) 0.1% | viability, T/C (second compound 3.16 µM, first compound 0.001 µM) 0.5% | viability, T/C [45] 0.12% | viability, T/C [46] 0.08% | viability, T/C [25] 0.08% | viability, T/C [26] 0.16% | viability, T/C (second compound 10 µM, first compound 0.000316 µM) 0.12% | viability, T/C (second compound 10 µM, first compound 0.001 µM) 0.13% | viability, T/C [47] 0.82% | viability, T/C [48] 0.14% | viability, T/C [31] 0.13% | viability, T/C [32] 0.15%

Nc1ccn(C2OC(CO)C(O)C2(F)F)c(=O)n1 (stereo not given) + CN1CCN(c2cc(C(=O)Nc3cc4cc(-c5cnn(C)c5)ccc4cn3)ccn2)CC1
active: viability, T/C [4] 5.88% | viability, T/C [5] 5.69% | viability, T/C [6] 4.49% | viability, T/C [9] 10.1% | viability, T/C [10] 5.67% | viability, T/C [11] 4.53% | viability, T/C [12] 3.3% | viability, T/C [16] 7.45% | viability, T/C [17] 9.18% | viability, T/C [18] 5.35% | viability, T/C [19] 0.19% | viability, T/C [20] 0.38% | viability, T/C [21] 1.02% | viability, T/C [22] 0.31% | viability, T/C [23] 0.14% | viability, T/C [24] 1.01% | viability, T/C [25] 0.09% | viability, T/C [26] 1.1% | viability, T/C [27] 0.11% | viability, T/C [28] 0.09% | viability, T/C [29] 0.1% | viability, T/C [30] 0.39% | viability, T/C [31] 0.12% | viability, T/C [32] 0.13% | viability, T/C [33] 0.17% | viability, T/C [34] 0.17% | viability, T/C [35] 0.28% | viability, T/C [36] 0.17%
inactive: viability, T/C [1] 65.2% | viability, T/C [2] 31.1% | viability, T/C [3] 11.9% | viability, T/C [7] 67.7% | viability, T/C [8] 22.8% | viability, T/C [13] 32.1% | viability, T/C [14] 22.7% | viability, T/C [15] 13%
52.9 nM: IC50 (second compound 0.0316 µM)
49.8 nM: IC50 (second compound 0.1 µM)
< 31.6 nM: IC50 (second compound 0.316 µM) | IC50 (second compound 1 µM) | IC50 (second compound 3.16 µM) | IC50 (second compound 10 µM)

O=c1[nH]cc(F)c(=O)[nH]1 + CN1CCN(c2cc(C(=O)Nc3cc4cc(-c5cnn(C)c5)ccc4cn3)ccn2)CC1
active: viability, T/C [19] 0.35% | viability, T/C [20] 0.26% | viability, T/C [21] 0.78% | viability, T/C [22] 0.34% | viability, T/C [23] 0.27% | viability, T/C [24] 1.43% | viability, T/C [25] 0.06% | viability, T/C [26] 1.49% | viability, T/C [27] 0.1% | viability, T/C [28] 0.07% | viability, T/C [29] 0.55% | viability, T/C [30] 0.1% | viability, T/C [31] 0.06% | viability, T/C [32] 0.27% | viability, T/C [33] 3.05% | viability, T/C [34] 0.13% | viability, T/C [35] 1.38% | viability, T/C [36] 1.3%
inactive: viability, T/C [1] 114% | viability, T/C [2] 121% | viability, T/C [3] 83% | viability, T/C [4] 63.3% | viability, T/C [5] 30.7% | viability, T/C [6] 21.9% | viability, T/C [7] 114% | viability, T/C [8] 97.7% | viability, T/C [9] 96.3% | viability, T/C [10] 49.1% | viability, T/C [11] 33.7% | viability, T/C [12] 21.9% | viability, T/C [13] 40.7% | viability, T/C [14] 40.6% | viability, T/C [15] 34.1% | viability, T/C [16] 29.9% | viability, T/C [17] 23.9% | viability, T/C [18] 20.7%
< 31.6 nM: IC50 (second compound 0.316 µM) | IC50 (second compound 1 µM) | IC50 (second compound 3.16 µM) | IC50 (second compound 10 µM)
1080 nM: IC50 (second compound 0.1 µM)
1470 nM: IC50 (second compound 0.0316 µM)

From PubChem BioAssay AID2060602 (Molecular Pharmacology Branch, DTP, NCI, 2025)
